Test results: article PMC11600623 (Clinical and Translational Science, 2024)
Like-named read-outs stand apart in the source and are kept apart here. Each block holds one compound with its values, some of them ahead of it.

Tests used:
Assay type in all cases: in vivo, human
[1] = Influence of covariates on steady-state exposure metrics
[2] = Population PK model of quizartinib
[3] = Population PK model of AC886
[4] = newly diagnosed AML vs R/R AML reference
[5] = residual unexplained variability
[6] = final model, typical subject, f MET fixed to 0.5
[7] = newly diagnosed AML vs R/R AML and non-AML reference

Increase of exposure ([1]; concomitant administration of strong CYP3A inhibitors): ~2 fold | Exposure in non-AML subjects compared to AML patients ([1]; higher in non-AML subjects): approximately 1.7 fold | Increase of steady-state area under the curve during the dosing interval (AUCss) ([1]; use of strong CYP3A inhibitors): 1.8 fold | IIV D1 [2]: 82 % coefficient of variation (CV) | IIV Q 1,quiz [2]: 69 % CV | IIV (CV) for F rel ([2]; AML patients): 44% | Age effect on V p1,quiz ([2]; exponential covariate model): 0.0152 1/year | D1 (duration of zero-order input to depot compartment) ([2]; final model): 0.710 h | Shape box-cox parameter for IIV on F rel for AML patients ([2]; final model): −1.28 | T lag (absorption lag time) ([2]; final model): 0.196 h | k a (first-order absorption rate constant) ([2]; final model): 1.10 h⁻¹ | Fractional change in CLquiz for Black race ([2]; final model covariate effect): −0.261 | Fractional change in CLquiz with strong CYP3A inhibitors ([2]; final model covariate effect): −0.301 | Fractional change in F rel with moderate CYP3A inhibitors ([2]; final model covariate effect): 0.116 | Fractional change in F rel with strong CYP3A inhibitors ([2]; final model covariate effect): 0.273 | Fractional change in V c,quiz for females ([2]; final model covariate effect): −0.169 | Fractional change in k a for non-AML subjects ([2]; final model covariate effect): −0.188 | Q 1,quiz (apparent intercompartmental clearance 1) ([2]; final model, typical subject): 40.7 L/h | Q 2,quiz (apparent intercompartmental clearance 2) ([2]; final model, typical subject): 0.757 L/h | V p1,quiz (apparent peripheral volume of distribution 1) ([2]; final model, typical subject): 312 L | V p2,quiz (apparent peripheral volume of distribution 2) ([2]; final model, typical subject): 91.9 L | Vd ([2]; human, plasma, oral): 371 L | clearance ([2]; human, plasma, oral): 111 mL/min | IIV D1 ([2]; interindividual variability): 0.821 CV | IIV F rel AML patients ([2]; interindividual variability): 0.444 CV | IIV F rel non-AML subjects ([2]; interindividual variability): 0.256 CV | IIV Q 1,quiz ([2]; interindividual variability): 0.691 CV | IIV T lag ([2]; interindividual variability): 0.647 CV | IIV V c,quiz ([2]; interindividual variability): 0.186 CV | IIV k a ([2]; interindividual variability): 0.423 CV | Fractional change in F rel during Consolidation [2, 4]: −0.192 | Fractional change in F rel during Continuation [2, 4]: 0.418 | Fractional change in F rel during Induction [2, 4]: −0.419 | F rel for non-AML subjects ([2]; relative to AML patients): 1.73 | Additive RUV log scale AML patients [2, 5]: 0.440 CV | Additive RUV log scale non-AML subjects [2, 5]: 0.102 CV
Structure (SMILES): CC(C)(C)c1cc(NC(=O)Nc2ccc(-c3cn4c(n3)sc3cc(OCCN5CCOCC5)ccc34)cc2)no1 [quizartinib]

Change of exposure compared to all other race categories ([1]; Black race, median difference): ~0.7 fold | IIV (CV) for CLAC886 ([3]; AML patients): 74% | Fractional change in CLAC886 for Black race ([3]; final model covariate effect): 0.488 | Fractional change in CLAC886 for non-AML subjects ([3]; final model covariate effect): 0.843 | Fractional change in CLAC886 with strong CYP3A inhibitors ([3]; final model covariate effect): 0.298 | Fractional change in V c,AC886 with strong CYP3A inhibitors ([3]; final model covariate effect): 2.79 | Q AC886 (apparent intercompartmental clearance) ([3]; final model, typical subject): 3.76 L/h | V p,AC886 (apparent peripheral volume of distribution) ([3]; final model, typical subject): 68.5 L | CLAC886 (apparent CL of AC886) [3, 6]: 4.61 L/h | V c,AC886 (apparent central volume of distribution) [3, 6]: 8.93 L | IIV CLAC886 AML patients ([3]; interindividual variability): 0.740 CV | IIV CLAC886 non-AML subjects ([3]; interindividual variability): 0.516 CV | IIV V c,AC886 ([3]; interindividual variability): 1.36 CV | Fractional change in f MET during Consolidation [3, 7]: 0.272 | Fractional change in f MET during Continuation [3, 7]: −0.249 | Fractional change in f MET during Induction [3, 7]: 0.715 | Additive RUV log scale AML patients [3, 5]: 0.452 CV | Additive RUV log scale non-AML subjects [3, 5]: 0.312 CV
Structure (SMILES): CC(C)(CO)c1cc(NC(=O)Nc2ccc(-c3cn4c(n3)sc3cc(OCCN5CCOCC5)ccc34)cc2)no1 [AC886]
Interindividual variability of systemic clearance ([3]; abstract statement for both moieties): approximately 70 % coefficient of variation
